From BindingDB's records for doi:10.1124/jpet.102.047183 (Abbott Laboratories, 2003) come the findings set out here.

Some targets named below: Histamine H2 receptor (Homo sapiens, UniProt P25021); Histamine H1 receptor (Homo sapiens, UniProt P35367); Hrh3 protein (Rattus norvegicus, UniProt Q5PPG3); Histamine receptor H3 (Canis lupus familiaris, UniProt Q865E3); Histamine H4 receptor (Homo sapiens, UniProt Q9H3N8).
The target of assay [1] is Histamine H3 receptor (Cavia porcellus, UniProt Q9JI35).
Histamine H3 receptor (Cavia porcellus, UniProt Q9JI35), sequence (Q9JI35 whole entry): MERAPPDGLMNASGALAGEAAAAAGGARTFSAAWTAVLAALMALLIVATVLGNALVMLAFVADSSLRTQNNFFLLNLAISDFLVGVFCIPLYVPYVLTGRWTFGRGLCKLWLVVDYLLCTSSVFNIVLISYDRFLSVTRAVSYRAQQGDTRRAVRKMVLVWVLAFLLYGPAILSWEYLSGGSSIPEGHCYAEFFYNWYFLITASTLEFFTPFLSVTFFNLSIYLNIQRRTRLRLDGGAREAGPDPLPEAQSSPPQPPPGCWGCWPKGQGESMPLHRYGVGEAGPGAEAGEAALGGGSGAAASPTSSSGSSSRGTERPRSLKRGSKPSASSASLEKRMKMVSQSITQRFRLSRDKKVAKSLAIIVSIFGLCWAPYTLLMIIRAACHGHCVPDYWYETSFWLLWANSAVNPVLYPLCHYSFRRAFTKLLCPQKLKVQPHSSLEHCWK
Assay [2] has as its target T1, Alpha-2A adrenergic receptor (Homo sapiens, UniProt P08913).
T1 sequence (P08913 whole entry): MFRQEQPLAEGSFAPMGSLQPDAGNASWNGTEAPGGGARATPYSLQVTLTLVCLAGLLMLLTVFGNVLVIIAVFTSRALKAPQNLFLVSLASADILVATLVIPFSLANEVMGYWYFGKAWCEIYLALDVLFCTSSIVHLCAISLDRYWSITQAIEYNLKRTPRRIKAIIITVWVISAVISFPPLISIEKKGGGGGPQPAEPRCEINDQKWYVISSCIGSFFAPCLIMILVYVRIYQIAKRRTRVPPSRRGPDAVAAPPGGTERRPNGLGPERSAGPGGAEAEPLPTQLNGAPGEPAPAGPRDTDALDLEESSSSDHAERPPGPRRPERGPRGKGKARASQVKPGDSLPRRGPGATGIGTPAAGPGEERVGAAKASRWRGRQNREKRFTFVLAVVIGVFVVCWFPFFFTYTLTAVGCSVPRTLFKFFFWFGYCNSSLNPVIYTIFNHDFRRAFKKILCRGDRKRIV

Assay [3] addresses T2, Alpha-2C adrenergic receptor (Homo sapiens, UniProt P18825).
T2 sequence (P18825 whole entry): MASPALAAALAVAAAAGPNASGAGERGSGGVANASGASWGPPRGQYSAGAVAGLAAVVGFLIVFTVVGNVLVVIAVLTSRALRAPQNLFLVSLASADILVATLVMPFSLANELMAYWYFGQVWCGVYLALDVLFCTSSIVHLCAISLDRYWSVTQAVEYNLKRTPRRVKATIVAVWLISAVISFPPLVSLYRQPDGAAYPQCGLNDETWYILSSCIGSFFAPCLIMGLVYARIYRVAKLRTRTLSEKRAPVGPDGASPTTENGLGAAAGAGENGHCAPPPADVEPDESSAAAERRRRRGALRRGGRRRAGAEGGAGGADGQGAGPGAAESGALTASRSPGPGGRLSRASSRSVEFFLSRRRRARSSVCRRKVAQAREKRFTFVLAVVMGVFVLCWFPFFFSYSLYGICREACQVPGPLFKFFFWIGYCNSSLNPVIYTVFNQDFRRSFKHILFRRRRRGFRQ

The target of assay [4] is T3, 5-hydroxytryptamine receptor 3A (Rattus norvegicus, UniProt P35563).
T3 sequence (P35563 whole entry): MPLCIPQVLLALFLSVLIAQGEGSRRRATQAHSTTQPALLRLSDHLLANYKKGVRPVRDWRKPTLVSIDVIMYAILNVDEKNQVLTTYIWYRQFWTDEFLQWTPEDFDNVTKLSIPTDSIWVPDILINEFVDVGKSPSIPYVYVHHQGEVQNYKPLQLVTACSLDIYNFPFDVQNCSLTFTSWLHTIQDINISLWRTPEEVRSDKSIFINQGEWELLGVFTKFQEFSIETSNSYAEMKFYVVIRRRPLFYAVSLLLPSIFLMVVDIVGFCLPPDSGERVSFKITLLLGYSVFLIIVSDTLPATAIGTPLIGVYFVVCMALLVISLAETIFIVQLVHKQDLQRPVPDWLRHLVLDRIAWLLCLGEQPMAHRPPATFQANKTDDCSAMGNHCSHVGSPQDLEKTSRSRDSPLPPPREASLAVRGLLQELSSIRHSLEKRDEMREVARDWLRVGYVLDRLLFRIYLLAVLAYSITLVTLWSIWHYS

The target of assay [5] is Histamine H3 receptor (Homo sapiens, UniProt Q9Y5N1).
Histamine H3 receptor (Homo sapiens, UniProt Q9Y5N1), sequence (Q9Y5N1 whole entry): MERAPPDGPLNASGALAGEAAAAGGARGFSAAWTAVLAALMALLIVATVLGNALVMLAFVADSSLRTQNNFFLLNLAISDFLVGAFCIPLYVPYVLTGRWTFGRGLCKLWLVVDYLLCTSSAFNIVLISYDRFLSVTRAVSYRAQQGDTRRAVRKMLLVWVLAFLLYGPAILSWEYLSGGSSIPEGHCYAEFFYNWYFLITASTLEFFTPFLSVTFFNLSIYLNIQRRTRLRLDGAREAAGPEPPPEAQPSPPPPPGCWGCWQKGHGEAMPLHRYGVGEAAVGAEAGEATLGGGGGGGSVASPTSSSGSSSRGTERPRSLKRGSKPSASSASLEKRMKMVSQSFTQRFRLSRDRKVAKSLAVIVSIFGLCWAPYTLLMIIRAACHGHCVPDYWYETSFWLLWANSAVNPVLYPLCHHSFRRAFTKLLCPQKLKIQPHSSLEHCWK

Values joined by “and” are separate entries in the source; they are usually repeats but may differ in a detail not shown here. Equal entries are not always repeated. Bounds are passed on as bounds.

As a reminder, the Ki is a dissociation constant, usually derived from enzyme kinetics or from competition with a known ligand. A low value points to tighter binding.

Histamine receptor H3, sequence (Q865E3 whole entry): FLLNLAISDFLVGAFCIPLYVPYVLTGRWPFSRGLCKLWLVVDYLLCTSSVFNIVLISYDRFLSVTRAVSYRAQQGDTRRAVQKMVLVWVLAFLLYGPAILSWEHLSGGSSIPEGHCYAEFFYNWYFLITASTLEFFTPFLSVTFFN
Hrh3 protein, sequence (Q5PPG3 whole entry): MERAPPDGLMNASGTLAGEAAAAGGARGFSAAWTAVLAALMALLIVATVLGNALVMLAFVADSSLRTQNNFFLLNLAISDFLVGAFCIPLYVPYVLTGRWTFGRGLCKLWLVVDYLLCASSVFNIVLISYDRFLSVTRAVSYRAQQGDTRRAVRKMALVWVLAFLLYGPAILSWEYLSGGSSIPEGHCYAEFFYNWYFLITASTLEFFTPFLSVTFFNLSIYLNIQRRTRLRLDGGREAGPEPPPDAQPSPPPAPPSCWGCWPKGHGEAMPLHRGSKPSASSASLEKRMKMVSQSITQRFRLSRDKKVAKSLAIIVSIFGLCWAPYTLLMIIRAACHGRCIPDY
Histamine H2 receptor, sequence (P25021 whole entry): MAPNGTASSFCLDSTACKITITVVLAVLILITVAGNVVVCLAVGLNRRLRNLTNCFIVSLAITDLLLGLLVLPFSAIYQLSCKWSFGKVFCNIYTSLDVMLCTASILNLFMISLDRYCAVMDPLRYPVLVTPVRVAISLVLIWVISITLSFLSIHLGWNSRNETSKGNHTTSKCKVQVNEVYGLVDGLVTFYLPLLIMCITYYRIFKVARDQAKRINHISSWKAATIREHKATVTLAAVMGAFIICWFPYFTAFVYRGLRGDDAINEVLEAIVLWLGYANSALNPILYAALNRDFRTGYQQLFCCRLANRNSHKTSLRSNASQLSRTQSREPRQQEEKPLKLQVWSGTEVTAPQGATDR
Histamine H1 receptor, sequence (P35367 whole entry): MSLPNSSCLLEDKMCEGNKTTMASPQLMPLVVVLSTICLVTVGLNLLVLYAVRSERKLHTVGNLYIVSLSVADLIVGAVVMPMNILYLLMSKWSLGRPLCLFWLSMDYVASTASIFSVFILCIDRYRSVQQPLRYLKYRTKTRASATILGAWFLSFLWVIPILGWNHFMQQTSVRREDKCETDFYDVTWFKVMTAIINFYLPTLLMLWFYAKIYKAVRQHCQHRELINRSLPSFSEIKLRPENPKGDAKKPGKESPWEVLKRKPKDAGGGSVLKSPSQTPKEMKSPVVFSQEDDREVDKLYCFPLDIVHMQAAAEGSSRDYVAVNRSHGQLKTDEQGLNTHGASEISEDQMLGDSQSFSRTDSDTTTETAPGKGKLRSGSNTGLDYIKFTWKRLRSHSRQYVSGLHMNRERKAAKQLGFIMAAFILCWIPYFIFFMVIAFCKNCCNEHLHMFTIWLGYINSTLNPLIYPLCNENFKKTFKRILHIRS
Histamine H4 receptor, sequence (Q9H3N8 whole entry): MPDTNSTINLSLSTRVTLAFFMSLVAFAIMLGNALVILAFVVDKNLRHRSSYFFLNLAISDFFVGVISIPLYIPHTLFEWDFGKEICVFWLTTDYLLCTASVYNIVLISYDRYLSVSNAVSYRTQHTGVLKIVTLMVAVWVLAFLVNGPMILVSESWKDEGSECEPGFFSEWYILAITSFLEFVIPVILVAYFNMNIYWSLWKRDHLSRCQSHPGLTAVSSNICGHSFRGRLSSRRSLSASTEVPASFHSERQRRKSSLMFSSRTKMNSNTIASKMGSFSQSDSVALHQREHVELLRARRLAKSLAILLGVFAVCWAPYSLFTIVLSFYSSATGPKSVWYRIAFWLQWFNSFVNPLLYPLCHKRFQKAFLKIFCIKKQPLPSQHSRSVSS

`S=C(NC1CCCCC1)N1CCC(c2cnc[nH]2)CC1`: the Ki was 4.57 nM on Histamine H3 receptor [1]; 126 nM in assay [2]; 347 nM in assay [3]; above 10000 nM at Histamine H2 receptor; above 10000 nM on Histamine H1 receptor; 3.63 nM and 7.08 nM on Hrh3 protein. The Ki on Histamine receptor H3 was found to be 6.76 nM; in [4], 2290 nM.

Take `O=C(c1ccc(OCCCc2cnc[nH]2)cc1)C1CC1`: the Ki on Histamine H4 receptor was 1860 nM; at Histamine H3 receptor [1] it was 1.74 nM; in [2], 42.7 nM; on Histamine H2 receptor it was above 10000 nM; on Histamine H1 receptor, above 10000 nM; on Hrh3 protein, 0.51 nM and 0.63 nM. The inhibition constant Ki is 5.75 nM on Histamine receptor H3 and 302 nM in [4].

Turning to `C[C@@H](NC(=O)c1ccco1)C(=O)N1CCN(CCCOc2ccc(C(=O)C3CC3)cc2)CC1`, the inhibition constant Ki on Histamine H4 receptor was above 10000 nM; on Histamine H3 receptor [1], 2.4 nM; in assay [2], above 10000 nM; in assay [3], 2400 nM; on Histamine H2 receptor, above 10000 nM; on Histamine H1 receptor, 3980 nM. Moreover, the inhibitory constant (Ki) on Hrh3 protein is 0.71 nM and 0.72 nM; on Histamine receptor H3 it was 4.27 nM; in assay [4] it was above 10000 nM.

For `CCn1c(=O)[nH]c(=O)c2conc21` [A-304121], the Ki at Histamine H4 receptor is above 10000 nM; at Histamine H3 receptor [1], 17.4 nM; in assay [2] it was above 10000 nM; in assay [3], 2880 nM; on Histamine H2 receptor it was above 10000 nM; at Histamine H3 receptor [5], 759 nM and 813 nM. The Ki is above 10000 nM at Histamine H1 receptor; 2.51 nM and 1.26 nM at Hrh3 protein; 46.8 nM on Histamine receptor H3.

On to `NC(=NCc1ccc(Cl)cc1)SCCCc1cnc[nH]1` [VUF 9153], for which the Ki at Histamine H4 receptor was found to be 41.7 nM; at Histamine H3 receptor [1], 0.22 nM; in assay [2], 17.4 nM; in assay [3], 15.9 nM; at Histamine H2 receptor, 2510 nM; on Histamine H1 receptor it was 6310 nM. For the same compound, the inhibition constant Ki was 0.08 nM on Histamine receptor H3 and 7.41 nM in [4].
